Article PMC7435657, “[^99mTc]Tc-DB1 Mimics with Different-Length PEG Spacers: Preclinical Comparison in GRPR-Positive Models” (Molecules, 2020)

Key:
PC-3 cells = experiment: Radiotracer uptake (internalized + membrane bound) in PC-3 cells; type: cell-based, human; conditions: 1 h incubation at 37 °C, % of total added radioactivity, mean ± SD of 3 experiments
Procedure: The uptake of [^99mTc]Tc-DB7, [^99mTc]Tc-DB13, and [^99mTc]Tc-DB14 in PC-3 cells is compared in Figure 3. In all cases, the bulk of radioactivity was found on the membrane of PC-3 cells with only a small portion detected within the cells, consistent with a noninternalizing radioantagonist profile.
Figure 3 Specific uptake of [^99mTc]Tc-DB7 (pink bars), [^99mTc]Tc-DB13 (violet bars) and [^99mTc]Tc-DB14 (gray bars) in PC-3 cells after 1 h incubation at 37 °C (checkered bars: internalized, solid bars: membrane bound fractions); results represent the mean ± SD of 3 experiments performed in triplicate.
For internalization assays with [^99mTc]Tc-DB7, [^99mTc]Tc-DB13, and [^99mTc]Tc-DB14, PC-3 cells were seeded in six well plates (≈1 × 10^6 cells per well) 24 h before the experiment. […] Nonspecific internalization was determined by a parallel triplicate series containing 1 μM [Tyr^4]BBN. […] Sample radioactivity was measured on the gamma counter and the percentage, of specific internalized and membrane-bound fractions were calculated with Microsoft Excel (after subtracting nonspecific from overall internalized and membrane-bound counts). Results represent specific internalized ± SD of total added radioactivity per well from three experiments performed in triplicate.

human GRPR = human GRPR (Homo sapiens, UniProt P30550); experiment: biochemical
Procedure: Competition binding assays for DB7, DB13 and DB14 were performed in PC-3 cell membranes.
Competition binding experiments of DB7, […] against [^125 I][I-Tyr^4]BBN were conducted in PC-3 cell membranes. Increasing concentrations of tested peptide (10^−13–10^−5 M) were mixed with the radioligand (40,000 cpm per assay tube, at a 50 pM concentration) and the membrane homogenate in a total volume of 300 μL binding buffer (pH 7.4, 50 mM HEPES, 1% BSA, 5.5 mM MgCl2, 35 μM bacitracin). Triplicates of each concentration point were incubated for 60 min at 22 °C in an Incubator-Orbital Shaker unit (MPM Instr. SrI, Bernareggio, MI, Italy). The incubation was interrupted by adding ice-cold washing buffer (10 mM HEPES pH 7.4, 150 mM NaCl), followed by rapid filtration over glass fiber filters (Whatman GF/B, presoaked in binding buffer) on a Brandel Cell Harvester (Adi Hassel Ingenieur Büro, Munich, Germany). Filters were washed with cold washing buffer and were counted for their radioactivity content in an automated well-type gamma counter [NaI(Tl) 3″ crystal, Canberra Packard Cobra Quantum series instrument]. The 50% inhibitory concentration (IC50) values were calculated by nonlinear regression according to a one-site model applying the PRISM 6 program (Graph Pad Software, San Diego, CA, USA) and are expressed as mean ± SD of three experiments performed in triplicate.

Sequence of human GRPR (P30550 whole entry): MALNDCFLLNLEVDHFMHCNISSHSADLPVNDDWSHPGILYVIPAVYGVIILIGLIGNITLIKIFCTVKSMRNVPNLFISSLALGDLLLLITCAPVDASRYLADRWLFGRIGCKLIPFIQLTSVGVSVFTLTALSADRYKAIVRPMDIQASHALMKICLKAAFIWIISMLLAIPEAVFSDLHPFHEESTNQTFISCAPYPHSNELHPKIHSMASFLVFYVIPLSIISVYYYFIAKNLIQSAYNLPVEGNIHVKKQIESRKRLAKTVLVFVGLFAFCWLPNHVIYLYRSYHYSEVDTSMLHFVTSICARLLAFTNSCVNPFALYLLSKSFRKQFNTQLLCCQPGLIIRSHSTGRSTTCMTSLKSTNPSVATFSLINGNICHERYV

Compound | Specific cell uptake (PC-3 cells) | IC50 (human GRPR)
[^99mTc]Tc-[N4-PEGx-DPhe^6,Leu-NHEt^13]BBN(6-13) [[^99mTc]Tc-DB7] | 2.6 ± 0.5% | 
CCNC(=O)[C@H](CC(C)C)NC(=O)[C@H](Cc1c[nH]cn1)NC(=O)CNC(=O)[C@@H](NC(=O)[C@H](C)NC(=O)[C@H](Cc1c[nH]c2ccccc12)NC(=O)[C@H](CCC(N)=O)NC(=O)[C@@H](Cc1ccccc1)NC(=O)CCOCCOCCOCCNC(=O)C(CNCCN)CNCCN)C(C)C [DB13, [N4-PEGx-DPhe^6,Leu-NHEt^13]BBN(6-13)] |  | 1.03 ± 0.01 nM
CCNC(=O)[C@H](CC(C)C)NC(=O)[C@H](Cc1c[nH]cn1)NC(=O)CNC(=O)[C@@H](NC(=O)[C@H](C)NC(=O)[C@H](Cc1c[nH]c2ccccc12)NC(=O)[C@H](CCC(N)=O)NC(=O)[C@@H](Cc1ccccc1)NC(=O)COCCOCCNC(=O)C(CNCCN)CNCCN)C(C)C [DB7, [N4-PEGx-DPhe^6,Leu-NHEt^13]BBN(6-13)] |  | 0.93 ± 0.01 nM
CCNC(=O)[C@H](CC(C)C)NC(=O)[C@H](Cc1c[nH]cn1)NC(=O)CNC(=O)[C@@H](NC(=O)[C@H](C)NC(=O)[C@H](Cc1c[nH]c2ccccc12)NC(=O)[C@H](CCC(N)=O)NC(=O)[C@@H](Cc1ccccc1)NC(=O)CCOCCOCCOCCOCCNC(=O)C(CNCCN)CNCCN)C(C)C [DB14, [N4-PEGx-DPhe^6,Leu-NHEt^13]BBN(6-13)] |  | 1.18 ± 0.09 nM
